Legend:
Format in all cases: in vivo
[1] = test system: Alopecurus myosuroides (ALOMY); assay: Biological Example 1 glasshouse screen, pre-emergence herbicidal activity; conditions: 312 h, application rate 250 g/ha, evaluated after 13 days, read-out: ALOMY percentage phytotoxicity
Protocol: (§1) Seeds of a variety of test species were sown in standard soil in pots. After cultivation for one day (pre-emergence) or after 8 days cultivation (post-emergence) under controlled conditions in a glasshouse (at 24/16°C., day/night; 14 hours light; 65% humidity), the plants were sprayed with an aqueous spray solution derived from the formulation of the “technical”(i.e. unformulated) active ingredient in acetone/water (50:50) solution containing 0.5% Tween 20 (polyoxyethylene sorbitan monolaurate, CAS Registry Number 9005-64-5). The test plants were then grown in a glasshouse under controlled conditions in a glasshouse (at 24/16°C., day/night; 14 hours light; 65% humidity) and watered twice daily. After 13 days for pre- or post-emergence, the test was evaluated visually, and an assessed percentage phytotoxicity score given for each herbicidal application on each plant/weed species (with 100%=total damage to plant; 0%=no damage to plant).
(§2) Test plants: Alopecurus myosuroides (ALOMY), Setaria faberi (SETFA), Echinochloa crus-galli (ECHCG), Solanum nigrum (SOLNI), Amaranthus retroflexus (AMARE) and Ipomoea hederacea (IPOHE). ALOMY, SETFA and ECHCG are grassy monocotyledonous weeds. SOLNI, AMARE and IPOHE are dicotyledonous (broadleaved) weeds.
(§3) Test plants: Lolium perenne (LOLPE), Alopecurus myosuroides (ALOMY), Echinochloa crus-galli (ECHCG), and Avena fatua (AVEFA). All four of these are grassy monocotyledonous weeds.

[2] = test system: Echinochloa crus-galli (ECHCG); assay: as above; conditions: 312 h, application rate 250 g/ha, evaluated after 13 days, read-out: ECHCG percentage phytotoxicity
Protocol: as §1, §2, §3

Avena fatua (AVEFA) [3] = assay: as above; conditions: 312 h, application rate 250 g/ha, evaluated after 13 days, read-out: AVEFA percentage phytotoxicity
Protocol: as §1, §3

Lolium perenne (LOLPE) [4] = assay: as above; conditions: 312 h, application rate 250 g/ha, evaluated after 13 days, read-out: LOLPE percentage phytotoxicity
Protocol: as §1, §3

[5] = test system: Alopecurus myosuroides (ALOMY); assay: Biological Example 1 glasshouse screen, post-emergence herbicidal activity; conditions: 312 h, application rate 250 g/ha, evaluated after 13 days, read-out: ALOMY percentage phytotoxicity
Protocol: as §1, §2, §3

[6] = test system: Echinochloa crus-galli (ECHCG); assay: as above; conditions: 312 h, application rate 250 g/ha, evaluated after 13 days, read-out: ECHCG percentage phytotoxicity
Protocol: as §1, §2, §3

Avena fatua (AVEFA) [7] = assay: as above; conditions: 312 h, application rate 250 g/ha, evaluated after 13 days, read-out: AVEFA percentage phytotoxicity
Protocol: as §1, §3

Lolium perenne (LOLPE) [8] = assay: as above; conditions: 312 h, application rate 250 g/ha, evaluated after 13 days, read-out: LOLPE percentage phytotoxicity
Protocol: as §1, §3

[9] = test system: Triticum aestivum, wheat (TRZAW); assay: Biological Example 3 glasshouse screen, post-emergence, phytotoxicity on wheat; conditions: 360 h, 15 DAA, no safener, read-out: TRZAW percentage phytotoxicity; for pest or weed control at 30 g/ha: application rate 30 g/ha; for pest or weed control at 60 g/ha: application rate 60 g/ha
Protocol: (§4) Test Method: Seeds of a variety of test species are sown in standard soil in pots. After cultivation for one day (pre-emergence) or after 12 days cultivation (post-emergence) under controlled conditions in a glasshouse (warm climate species at 24/18°C., cool climate species at 20/16°C., both at day/night; 16 hours light; 65% humidity), the plants are sprayed with an aqueous spray solution derived from the formulation of the “technical”(i.e. unformulated) active ingredient dissolved in acetone plus IF50, at a 1:20 ratio of “technical”active ingredient to IF50. The IF50 contains about 10.56 weight % Emulsogen EL™(castor oil ethoxylate, CAS Registry number 61791-12-6), about 42.22 weight % N-methylpyrrolidone, and about 42.22 weight % DPG-Monoethyl ether (dipropylene glycol mono-ethyl ether). The adjuvant X-77 (a mixture of alkyl aryl polyoxyethylene glycols and free fatty acids in isopropanol, CAS Registry number 11097-66-8) is added to the aqueous spray solution to form a 0.2% v/v solution, before spraying onto the plants.
(§5) The test plants are then grown in a glasshouse under controlled conditions in a glasshouse (at 24/18°C. or 20/16°C., day/night; 16 hours light; 65% humidity) and watered twice daily. After 15 days after application of the herbicide (15 DAA) (for post-emergence), and after 20 DAA (for pre-emergence), the test is evaluated visually, and an assessed percentage phytotoxicity score is given for each herbicidal application on each plant/weed species (with 100%=total damage to plant; 0%=no damage to plant).
These give an approximate indication of the level of selectivity on wheat for these tested compounds, when a herbicide safener such as cloquintocet-mexyl is not used: […]

[10] = test system: Alopecurus myosuroides, blackgrass (ALOMY); assay: Biological Example 3 glasshouse screen, post-emergence herbicidal activity; conditions: 360 h, 15 DAA, no safener, read-out: ALOMY percentage phytotoxicity; for pest or weed control at 30 g/ha: application rate 30 g/ha; for pest or weed control at 60 g/ha: application rate 60 g/ha
Protocol: as §4
as §5, with “plant). […]” for “plant).”

[11] = test system: Avena fatua, wild oats (AVEFA); assay: as above; conditions: 360 h, 15 DAA, no safener, read-out: AVEFA percentage phytotoxicity; for pest or weed control at 30 g/ha: application rate 30 g/ha; for pest or weed control at 60 g/ha: application rate 60 g/ha
Protocol: as §4
as §5, with “plant). […]” for “plant).”

[12] = test system: Echinochloa crus galli, barnyardgrass (ECHCG); assay: as above; conditions: 360 h, 15 DAA, no safener, read-out: ECHCG percentage phytotoxicity; for pest or weed control at 30 g/ha: application rate 30 g/ha; for pest or weed control at 60 g/ha: application rate 60 g/ha
Protocol: as §4
as §5, with “plant). […]” for “plant).”

[13] = test system: Lolium perenne, perennial ryegrass (LOLPE); assay: as above; conditions: 360 h, 15 DAA, no safener, read-out: LOLPE percentage phytotoxicity; for pest or weed control at 30 g/ha: application rate 30 g/ha; for pest or weed control at 60 g/ha: application rate 60 g/ha
Protocol: as §4
as §5, with “plant). […]” for “plant).”

[14] = test system: Alopecurus myosuroides (ALOMY); assay: Biological Example 2 post-emergence herbicidal activity (comparative data); conditions: 312 h, read-out: ALOMY percentage phytotoxicity; for pest or weed control at 15.625 g/ha: 15.625 g/ha application rate; for pest or weed control at 62.5 g/ha: 62.5 g/ha application rate
Protocol: as §1
(§6) Comparative herbicidal data are given for certain exemplified compounds with 4-(prop-1-ynyl)-2,6-dimethylphenyl or 4-(chloroethynyl)-2,6-dimethylphenyl headgroups, compared to the corresponding comparative compounds with 4-ethynyl-2,6-dimethylphenyl headgroups, as follows.
(§7) Except where specified otherwise, the glasshouse screen for herbicidal activity is substantially the same as that presented in Biological Example 1 hereinabove. The weed abbreviations are as defined in Biological Example 1.

Avena fatua (AVEFA) [15] = assay: as above
Protocol: as §1, §6, §7

[16] = test system: Echinochloa crus-galli (ECHCG); assay: as above; conditions: 312 h, read-out: ECHCG percentage phytotoxicity; for pest or weed control at 15.625 g/ha: 15.625 g/ha application rate; for pest or weed control at 62.5 g/ha: 62.5 g/ha application rate
Protocol: as §1, §6, §7

Lolium perenne (LOLPE) [17] = assay: as above
Protocol: as §1, §6, §7

Setaria faberi (SETFA) = assay: as above
Protocol: as §1, §6, §7

| Structure (SMILES) | pest or weed control at 250 g/ha [1] [%] | pest or weed control at 250 g/ha [2] [%] | pest or weed control at 250 g/ha (Avena fatua (AVEFA) [3]) [%] | pest or weed control at 250 g/ha (Lolium perenne (LOLPE) [4]) [%] | pest or weed control at 250 g/ha [5] [%] | pest or weed control at 250 g/ha [6] [%] | pest or weed control at 250 g/ha (Avena fatua (AVEFA) [7]) [%] | pest or weed control at 250 g/ha (Lolium perenne (LOLPE) [8]) [%] | pest or weed control at 60 g/ha [9] [%] | pest or weed control at 60 g/ha [10] [%] | pest or weed control at 60 g/ha [11] [%] | pest or weed control at 60 g/ha [12] [%] | pest or weed control at 60 g/ha [13] [%] | pest or weed control at 15.625 g/ha [14] [%] | pest or weed control at 62.5 g/ha [14] [%] | AVEFA percentage phytotoxicity (Avena fatua (AVEFA) [15]; 15.625 g/ha application rate) [%] | AVEFA percentage phytotoxicity (Avena fatua (AVEFA) [15]; 62.5 g/ha application rate) [%] | pest or weed control at 15.625 g/ha [16] [%] | pest or weed control at 62.5 g/ha [16] [%] | LOLPE percentage phytotoxicity (Lolium perenne (LOLPE) [17]; 15.625 g/ha application rate) [%] | further results |
| --- | --- | --- | --- | --- | --- | --- | --- | --- | --- | --- | --- | --- | --- | --- | --- | --- | --- | --- | --- | --- | --- |
| CC#Cc1cc(C)c(C2=C(O)CC(Cc3cccc(C)n3)C2=O)c(C)c1 (stereo not drawn) [Compound A-9] | 100 | 100 | 100 | 100 | 90 | 100 | 100 | 100 | 30 | 80 | 30 | 100 | 100 | – | – | – | – | – | – | – | pest or weed control at 30 g/ha [9]: 20%; pest or weed control at 30 g/ha [10]: 70%; pest or weed control at 30 g/ha [11]: 30%; pest or weed control at 30 g/ha [12]: 70%; pest or weed control at 30 g/ha [13]: 50% |
| CC#Cc1cc(C)c(C2=C(O)CC(CC3CCOCC3)C2=O)c(C)c1 (stereo not drawn) [Compound A-4, 2-(2,6-Dimethyl-4-prop-1-ynylphenyl)-4-(tetrahydropyran-4-ylmethyl)cyclopentane-1,3-dione] | 100 | 100 | 70 | 100 | 90 | 100 | 100 | 100 | – | – | – | – | – | 70 | 90 | 100 | 100 | 100 | 100 | 100 | LOLPE percentage phytotoxicity (Lolium perenne (LOLPE) [17]; 62.5 g/ha application rate): 100%; pest or weed control at 30 g/ha [9]: 80%; pest or weed control at 30 g/ha [10]: 100%; pest or weed control at 30 g/ha [11]: 80%; pest or weed control at 30 g/ha [12]: 100%; pest or weed control at 30 g/ha [13]: 100% |
| C#Cc1cc(C)c(C2C(=O)C3C(C2=O)[C@H]2CC[C@@H]3O2)c(C)c1 (stereo partly drawn) [X-4, reference compound] | – | – | – | – | – | – | – | – | – | – | – | – | – | 30 | 80 | – | – | 80 | 80 | – | SETFA percentage phytotoxicity (Setaria faberi (SETFA); 15.625 g/ha application rate): 40%; SETFA percentage phytotoxicity (Setaria faberi (SETFA); 62.5 g/ha application rate): 40% |
| CC#Cc1cc(C)c(C2=C(O)CC(Cc3cccnc3)C2=O)c(C)c1 (stereo not drawn) [Compound A-10] | 80 | 100 | 90 | 100 | 90 | 100 | 90 | 100 | 50 | 80 | 50 | 80 | 40 | – | – | – | – | – | – | – | – |
| C#Cc1cc(C)c(C2C(=O)CCC2=O)c(C)c1 [X-3, reference compound] | – | – | – | – | – | – | – | – | – | – | – | – | – | 0 | 0 | – | – | 0 | 20 | – | SETFA percentage phytotoxicity (Setaria faberi (SETFA); 15.625 g/ha application rate): 0%; SETFA percentage phytotoxicity (Setaria faberi (SETFA); 62.5 g/ha application rate): 0% |
| CC#Cc1cc(C)c(C2=C(O)CC(Cc3cccnc3C#CC)C2=O)c(C)c1 (stereo not drawn) [Compound A-15] | 90 | 100 | 70 | 100 | 90 | 100 | 100 | 100 | 30 | 50 | 80 | 80 | 40 | – | – | – | – | – | – | – | – |
| C#Cc1cc(C)c(C2=C(O)CC(CC3CCOCC3)C2=O)c(C)c1 (stereo not drawn) [X-2, reference compound] | – | – | – | – | – | – | – | – | – | – | – | – | – | 60 | 90 | 90 | 90 | 70 | 90 | 80 | LOLPE percentage phytotoxicity (Lolium perenne (LOLPE) [17]; 62.5 g/ha application rate): 90% |
| C#Cc1cc(C)c(C2=C(O)CC(Cc3ccccn3)C2=O)c(C)c1 (stereo not drawn) [X-1, reference compound] | – | – | – | – | – | – | – | – | – | – | – | – | – | 60 | 100 | 50 | 90 | 70 | 80 | 60 | LOLPE percentage phytotoxicity (Lolium perenne (LOLPE) [17]; 62.5 g/ha application rate): 100% |
